Results reported in ChEMBL document CHEMBL1201862, “PubChem BioAssay data set” (2004).
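Test compounds were applied to cells in 96-well plates for 48 hours at 5 doses. GI50 = concentration required for 50% inhibition of growth.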 Active and inactive are the calls of the source. Cut-off read from the data, not from the text of the source: active = GI50 up to about 1.1 µM and inactive = higher.

Assays:
Assay in all cases: NCI anticancer screen, dose series, 48 h
[1] = system: TK-10
[2] = system: NCI-H23
[3] = system: U-251
[4] = system: SF-295
[5] = system: HCT-116
[6] = system: IGROV-1
[7] = system: M14
[8] = system: EKVX
[9] = system: HL-60
[10] = system: UACC-62
[11] = system: SNB-75
[12] = system: UO-31
[13] = system: UACC-257
[14] = system: Hs-578T
[15] = system: SW-620
[16] = system: DU-145
[17] = system: MDA-MB-231
[18] = system: SK-MEL-5
[19] = system: COLO 205
[20] = system: SR

| SMILES | GI50 [1] | GI50 [2] | GI50 [3] | GI50 [4] | GI50 [5] | GI50 [6] | GI50 [7] | GI50 [8] | GI50 [9] | GI50 [10] | GI50 [11] | GI50 [12] | GI50 [13] | GI50 [14] | GI50 [15] | GI50 [16] | GI50 [17] | GI50 [18] | GI50 [19] | GI50 [20] |
| --- | --- | --- | --- | --- | --- | --- | --- | --- | --- | --- | --- | --- | --- | --- | --- | --- | --- | --- | --- | --- |
| CC(=O)NC1COC(COC(=O)CCCCCCCCCCNC(=O)c2ccc([N+](=O)[O-])c3c(=O)c4ccccc4[nH]c23)C(O)C1OC(C)C(=O)NC(C(=O)NC(CCC(N)=O)C(=O)OCc1ccccc1)C(C)C (stereo not drawn) | 18.5 µM (inactive) | 11.4 µM (inactive) | 11.5 µM (inactive) | 22 µM (inactive) | 12.2 µM (inactive) | 6.38 µM (inactive) | 35 µM (inactive) | 8.69 µM (inactive) | 0.445 µM (active) | 25.2 µM (inactive) | 14.4 µM (inactive) | 8.41 µM (inactive) | 15.3 µM (inactive) | 6.35 µM (inactive) | 26.6 µM (inactive) | 5.79 µM (inactive) | 38.8 µM (inactive) | 29.6 µM (inactive) | 18.8 µM (inactive) | 7.08 µM (inactive) |
| Cc1c(-c2ccccc2)c(C#N)c2nnn(C)c(=O)n12 | > 100 µM (inactive) | > 100 µM (inactive) | > 100 µM (inactive) | 68.9 µM (inactive) | > 100 µM (inactive) | > 100 µM (inactive) | > 100 µM (inactive) | > 100 µM (inactive) | > 100 µM (inactive) | > 100 µM (inactive) | 42.8 µM (inactive) | > 100 µM (inactive) | > 100 µM (inactive) | > 100 µM (inactive) | > 100 µM (inactive) | > 100 µM (inactive) | > 100 µM (inactive) | > 100 µM (inactive) | > 100 µM (inactive) | 65.6 µM (inactive) |
| O=c1[nH]c2ccccc2c(=O)n1/N=C\c1ccccc1O | > 100 µM (inactive) | > 100 µM (inactive) | > 100 µM (inactive) | > 100 µM (inactive) | > 100 µM (inactive) | > 100 µM (inactive) | > 100 µM (inactive) | 22.8 µM (inactive) | 36.1 µM (inactive) | > 100 µM (inactive) | 36.4 µM (inactive) | > 100 µM (inactive) | > 100 µM (inactive) | 32.3 µM (inactive) | > 100 µM (inactive) | > 100 µM (inactive) | > 100 µM (inactive) | 88.3 µM (inactive) | > 100 µM (inactive) | > 100 µM (inactive) |
| CCOC(=O)C(NC(=O)c1ccccc1)(Nc1ccc(S(=O)(=O)Nc2cc(C)nc(C)n2)cc1)C(F)(F)F (stereo not drawn) | > 100 µM (inactive) | > 100 µM (inactive) | > 100 µM (inactive) | > 100 µM (inactive) | > 100 µM (inactive) | > 100 µM (inactive) | > 100 µM (inactive) | > 100 µM (inactive) | > 100 µM (inactive) | > 100 µM (inactive) | > 100 µM (inactive) | > 100 µM (inactive) | > 100 µM (inactive) | > 100 µM (inactive) | 56.1 µM (inactive) | > 100 µM (inactive) | > 100 µM (inactive) | > 100 µM (inactive) | > 100 µM (inactive) | > 100 µM (inactive) |
| OCCCCCNc1c2ccccc2nc2ccccc12 | 3.6 µM (inactive) | 2.02 µM (inactive) | 3.73 µM (inactive) | 2.75 µM (inactive) | 1.45 µM (inactive) | 3.03 µM (inactive) | 2.74 µM (inactive) | 3.4 µM (inactive) | 3.44 µM (inactive) | 1.8 µM (inactive) | 5.52 µM (inactive) | 2.38 µM (inactive) | 2.02 µM (inactive) | 3.18 µM (inactive) | 2.55 µM (inactive) | 3.02 µM (inactive) | 2.74 µM (inactive) | 1.71 µM (inactive) | 1.53 µM (inactive) | 1.37 µM (inactive) |
| CCCCCCCCCCCCCCCCC1=CC(=O)C=C(OC)C1=O | > 100 µM (inactive) | 62.2 µM (inactive) | 32.5 µM (inactive) | > 100 µM (inactive) | 56 µM (inactive) | > 100 µM (inactive) | > 100 µM (inactive) | > 100 µM (inactive) | > 100 µM (inactive) | 34.7 µM (inactive) | > 100 µM (inactive) | > 100 µM (inactive) | > 100 µM (inactive) | 37.6 µM (inactive) | > 100 µM (inactive) | > 100 µM (inactive) | > 100 µM (inactive) | > 100 µM (inactive) | 55.6 µM (inactive) | 34.3 µM (inactive) |
| CC(=O)Nc1c2sscc-2n(C)c1=O [THIOLUTIN] | 2.15 µM (inactive) | 0.853 µM (active) | 1.12 µM (active) | 1.35 µM (inactive) | 0.695 µM (active) | 1.86 µM (inactive) | 0.314 µM (active) | 1.87 µM (inactive) | 0.512 µM (active) | 0.443 µM (active) | 1.67 µM (inactive) | 2.1 µM (inactive) | 1.57 µM (inactive) | 2.6 µM (inactive) | 0.664 µM (active) | 0.634 µM (active) | 1.73 µM (inactive) | 1.33 µM (inactive) | 0.596 µM (active) | 0.235 µM (active) |
| N#Cc1ccccc1NC(=O)C(O)C(O)C(O)C(O)C=O (stereo not drawn) | > 100 µM (inactive) | > 100 µM (inactive) | > 100 µM (inactive) | > 100 µM (inactive) | > 100 µM (inactive) | > 100 µM (inactive) | > 100 µM (inactive) | > 100 µM (inactive) | > 100 µM (inactive) | > 100 µM (inactive) | > 100 µM (inactive) | > 100 µM (inactive) | > 100 µM (inactive) | > 100 µM (inactive) | > 100 µM (inactive) | > 100 µM (inactive) | > 100 µM (inactive) | > 100 µM (inactive) | > 100 µM (inactive) | > 100 µM (inactive) |
| CC(C)=CCC[C@@H](C)C1=C(O)C(=O)C(C)=C(Nc2ccccc2F)C1=O | 29.9 µM (inactive) | 12.7 µM (inactive) | 9.33 µM (inactive) | 3.82 µM (inactive) | 13.3 µM (inactive) | 32.6 µM (inactive) | 16.7 µM (inactive) | 49.2 µM (inactive) | 2.28 µM (inactive) | 12.1 µM (inactive) | 22.1 µM (inactive) | 12.9 µM (inactive) | 21.9 µM (inactive) | 9.62 µM (inactive) | 23.8 µM (inactive) | 23.9 µM (inactive) | 28.4 µM (inactive) | 12.5 µM (inactive) | 23.4 µM (inactive) | 28.1 µM (inactive) |
| c1ccc2c3ccn4ccc5c6ccccc6[nH]c5c4c-3nc2c1 | 2.62 µM (inactive) | 1.69 µM (inactive) | 0.155 µM (active) | 1.46 µM (inactive) | 0.306 µM (active) | 1.25 µM (inactive) | 1.85 µM (inactive) | 1.02 µM (active) | 0.935 µM (active) | 1.77 µM (inactive) | 1.57 µM (inactive) | 1.39 µM (inactive) | 2 µM (inactive) | 1.6 µM (inactive) | 0.169 µM (active) | 1.43 µM (inactive) | 0.329 µM (active) | 1.46 µM (inactive) | 0.583 µM (active) | 0.0594 µM (active) |
| CC12CCC(Br)C(C)(C)C1CC=C1C(=O)OCC1O2 (stereo not drawn) | 14 µM (inactive) | 11.8 µM (inactive) | 9.77 µM (inactive) | 15.8 µM (inactive) | 12.9 µM (inactive) | 3.72 µM (inactive) | 20.5 µM (inactive) | 16.5 µM (inactive) | 1.84 µM (inactive) | 8.59 µM (inactive) | 15.5 µM (inactive) | 8.13 µM (inactive) | 12.4 µM (inactive) | 10.9 µM (inactive) | 16.7 µM (inactive) | 12 µM (inactive) | 14.4 µM (inactive) | 15.1 µM (inactive) | 18.2 µM (inactive) | 5.15 µM (inactive) |
| Cc1ccc([N+](=O)[O-])cc1S(=O)(=O)Nc1ccc(C2=NOC(c3ccco3)C2)cc1 (stereo not drawn) | 31.2 µM (inactive) | 16.5 µM (inactive) | – | 14.1 µM (inactive) | 16.4 µM (inactive) | 24 µM (inactive) | 15.3 µM (inactive) | 24.2 µM (inactive) | 21.3 µM (inactive) | 11.7 µM (inactive) | 18.7 µM (inactive) | 16.9 µM (inactive) | 17.6 µM (inactive) | 29.8 µM (inactive) | 18.7 µM (inactive) | 20.2 µM (inactive) | 17.1 µM (inactive) | 13.2 µM (inactive) | 20.1 µM (inactive) | 3.33 µM (inactive) |
| O=C(CSC1=NCCN1)c1ccccc1 | > 100 µM (inactive) | > 100 µM (inactive) | > 100 µM (inactive) | > 100 µM (inactive) | > 100 µM (inactive) | > 100 µM (inactive) | > 100 µM (inactive) | > 100 µM (inactive) | < 0.01 µM (active) | > 100 µM (inactive) | > 100 µM (inactive) | > 100 µM (inactive) | > 100 µM (inactive) | > 100 µM (inactive) | > 100 µM (inactive) | > 100 µM (inactive) | > 100 µM (inactive) | > 100 µM (inactive) | > 100 µM (inactive) | > 100 µM (inactive) |
| O=C1CSC2(CC(/C=C/c3ccccc3Br)=NN2c2cccc(S(=O)(=O)O)c2)N1c1nc2ccccc2s1 (stereo not drawn) | 45.7 µM (inactive) | > 100 µM (inactive) | 75.5 µM (inactive) | – | > 100 µM (inactive) | 55.1 µM (inactive) | > 100 µM (inactive) | > 100 µM (inactive) | > 100 µM (inactive) | 51.5 µM (inactive) | > 100 µM (inactive) | 93.5 µM (inactive) | > 100 µM (inactive) | > 100 µM (inactive) | > 100 µM (inactive) | > 100 µM (inactive) | > 100 µM (inactive) | 76 µM (inactive) | > 100 µM (inactive) | 33 µM (inactive) |
